# From US10092648B2, “Selective glucagon-like-peptide-2 (GLP-2) analogues” (Zealand Pharma A/S, priority 2006, dated 2018)
# Legend:
# [1] = amino acid side-chain; defined by W. D. Stein 1967; cited from earlier work
# male C57BL mice [2] = assay: In vivo stimulation of stomach growth, 200 nmol/kg (Example 12)
# Method: The effects of the test compounds according to the invention were determined based on the ability of the peptides to selectively increase stomach mass, relative to vehicle control. The ability of the present compounds (ZP2395, ZP2396, ZP2400, ZP2412, ZP2394 and ZP2401) to selectively stimulate stomach mass, relative to colon mass was determined in male C57BL mice. Individual groups (n=6-10) of mice were given 200 nmol/kg of each compound, s.c, once daily for three consecutive days. For comparison purposes other groups of animals were given either an equimolar dose of [[…]]GLP-2 or vehicle (phosphate buffered saline, pH 7.4) in the same dosing regimen. Twenty-four hours after the last dose of compound had been given the mice were sacrificed and the stomach and small intestine (from the pylorus to the ileocaecal junction) emptied and weighed. To correct for slight difference in body weight (BW), the organ mass of the stomach is presented relative to BW. […] To evaluate the differential growth pattern induced by ZP compounds, compared to [[…]]GLP-2, on the stomach, the stomach-colon sensitivity index of compound X was calculated as: (Stomach/Colon)x/Stomach/(Colon)[[…]]GLP-2% Compounds with a stomach/colon sensitivity greater than or equal to 1.05 were considered relatively selective for the stomach.
# male C57BL mice [3] = assay: In vivo stimulation of intestinal growth, 200 nmol/kg (Example 11); details: for Sensitivity index Si/Colon: relative to 1559
# Method: The ability of further compounds to selectively stimulate small intestinal mass, relative to colon mass was determined in male C57BL mice. A similar protocol was used to that described above in Example 10 except that 200 nmol/kg of each compound was administered per day. Thus, individual groups (n=6-10) of mice were given 200 nmol/kg of each compound, s.c, once daily for three consecutive days. Other groups of animals were given either an equimolar dose of [[…]]GLP-2 (reference compound) or vehicle (phosphate buffered saline, pH 7.4; negative controls) in the same dosing regimen. Twenty-four hours after the last dose of compound the mice were sacrificed and the stomach, small intestine and the colon emptied and weighed.
# male C57BL mice [4] = assay: In vivo stimulation of intestinal growth, 800 nmol/kg (Example 10); design: key to Small intestine-colon sensitivity index: (SI/Colon) of compound divided by (SI/Colon) of reference GLP-2; details: 800 nmol/kg s.c. once daily for 3 days; for Colon: colon mass relative to BW, % vs. [Gly2]GLP-2; for SI (% vs. [Gly2]GLP-2: small intestine mass relative to BW, [Gly2]GLP-2 = 100%
# Excerpt: Individual groups (n=6-10) of mice were given 800 nmol/kg of each compound, s.c, once daily for three consecutive days. For comparison purposes other groups of animals were given either an equimolar dose of [[…]]GLP-2 (ZP1559) or vehicle (phosphate buffered saline, pH 7.4) in the same dosing regimen Twenty-four hours after the last dose of compound had been given the mice were sacrificed and the small intestine (from the pylorus to the cecum) and the colon (intestine distal to cecum) was emptied and weighed. To correct for slight difference in body weight (BW), the organ mass of the small intestine (SI) and colon were expressed relative to BW. The non-selective reference compound [[…]]GLP-2 has been reported to stimulate gastrointestinal growth in both esophagus, stomach, small intestine and colon and to evaluate differences in growth pattern induced by compounds, the small intestine-colon sensitivity index of compound X was calculated as: […]
# [5] = colon weight relative to body weight, relative to ZP1559
# [6] = small intestine weight relative to body weight, relative to ZP1559
# [7] = 200 nmol/kg s.c. once daily for 3 days
# [8] = 200 nmol/kg s.c. once daily for 3 days, relative to 1559
Molecule,Sensitivity index Stomach/Co (male C57BL mice [2]; ratio Stomach-BW / Colon-BW),"Colon-BW, compared to 1559 in % (male C57BL mice [3]; [5])","SI-BW, compared to 1559 in % (male C57BL mice [3]; [6])","Sto-BW, compared to 1559 in % (male C57BL mice [2]; [7])",Sensitivity index Stomach/Co (male C57BL mice [2]; [8]),"Colon-BW, compared to 1559 in % (male C57BL mice [3]; [7])","SI-BW, compared to 1559 in % (male C57BL mice [3]; [7])",Sensitivity index Si/Colon (male C57BL mice [3]; [7]),"Organ selectivity (FIG. 8, unselective compounds) (male C57BL mice [3]; [7])",other results
N[C@@H](Cc1c[nH]cn1)C(=O)O [His],–,–,–,–,–,–,–,–,–,HBP for the individual amino acids [1]: 1
C[C@@H](O)[C@H](N)C(=O)O [Thr],–,–,–,–,–,–,–,–,–,HBP for the individual amino acids [1]: 2
N[C@@H](CS)C(=O)O [Cys],–,–,–,–,–,–,–,–,–,HBP for the individual amino acids [1]: 0
NCC(=O)O [Gly],–,–,–,–,–,–,–,–,–,HBP for the individual amino acids [1]: 0
H-HGEGSFSSELSTILDALAARDFIAWLIATKITDK-OH [ZP2242],0.93,106.6%,111.7%,–,–,–,–,–,–,"Stomach-BW, compared to 1559 in % (male C57BL mice [2]; stomach weight relative to body weight, relative to ZP1559): 99.6%; Sensitivity index Si/Co (male C57BL mice [3]; ratio SI-BW / Colon-BW): 1.05; Colon-BW, compared to 1559 in % (male C57BL mice [4]): 106.6%; Preferential stimulation of epithelial growth in the small intestine (summary) (male C57BL mice [4]): preferentially stimulating epithelial growth in the small intestine; SI-BW, compared to 1559 in % (male C57BL mice [4]): 111.7%; Sto-BW, compared to 1559 in % (male C57BL mice [4]): 99.6%; Sensitivity index Si/Colon (male C57BL mice [4]; relative to 1559): 1.05; Sensitivity index Stomach/Co (male C57BL mice [4]; relative to 1559): 0.93; Colon (male C57BL mice [4]): 107 ± 3%; SI (% vs. [Gly2]GLP-2 (male C57BL mice [4]): 111 ± 2%"
"H-[Gly2]hGLP-2-OH (H-HGDGSFSDEMNTILDNLAARDFINWLIQTKITD-OH) [[Gly2]GLP-2, GLP-2 with alanine in position 2 replaced with glycine, reference compound]",–,–,–,–,–,–,–,–,–,Small intestine-colon sensitivity index (male C57BL mice [4]; (SI/Colon)x/(SI/Colon)[Gly2]GLP-2): 1.00 ± 0.02; Colon (male C57BL mice [4]): 100 ± 2%; SI (% vs. [Gly2]GLP-2 (male C57BL mice [4]): 100 ± 1%
H-HGEGSFSDELLTILELLAASDFISWLISTKITD-NH2 [ZP2400],1.05,106%,106%,111%,1.05,106%,106%,1.00,–,"Preferential stimulation of epithelial growth in the stomach (summary) (male C57BL mice [2]; [7]): preferentially stimulating epithelial growth in the stomach; Selectivity for stomach mass relative to colon mass (FIG. 7) (male C57BL mice [2]; [7]): selectively increase stomach mass, relative to colon mass"
H-HGEGSFSDELATILESLAAADFIAWLIATKITD-NH2 [ZP2414],–,–,–,110%,1.04,106%,105%,0.99,"unselective for the small intestine, colon or stomach","Selectivity for stomach mass relative to colon mass (FIG. 7) (male C57BL mice [2]; [7]): selectively increase stomach mass, relative to colon mass"
H-HGEGSFSDELATILESLAAADFIAWLIATKITDKKKKKK-NH2 [ZP2415],–,–,–,100%,0.94,106%,106%,1.00,"unselective for the small intestine, colon or stomach",–
H-HGEGSFSDELSTILEALAASDFISWLISTKITDKKKKKK-NH2 [ZP2385],0.98,95%,110%,93%,0.98,95%,110%,1.16,–,"Preferential stimulation of epithelial growth in the small intestine (summary) (male C57BL mice [3]; [7]): preferentially stimulating epithelial growth in the small intestine; Selectivity for small intestinal mass relative to colon mass (FIG. 6) (male C57BL mice [3]; [7]): selectively increase small intestinal mass, relative to colon mass"
H-HGEGSFSDELLTILELLAASDFISWLISTKITDKKKKKK-NH2 [ZP2394],1.14,96%,105%,109%,1.14,96%,105%,1.09,–,"Preferential stimulation of epithelial growth in the stomach (summary) (male C57BL mice [2]; [7]): preferentially stimulating epithelial growth in the stomach; Selectivity for stomach mass relative to colon mass (FIG. 7) (male C57BL mice [2]; [7]): selectively increase stomach mass, relative to colon mass"
H-HGEGSFSDELKTILEKLAAKDFIKWLIKTKITDKKKKKK-NH2 [ZP2395],1.16,97%,98%,113%,1.16,97%,98%,1.01,–,"Preferential stimulation of epithelial growth in the stomach (summary) (male C57BL mice [2]; [7]): preferentially stimulating epithelial growth in the stomach; Selectivity for stomach mass relative to colon mass (FIG. 7) (male C57BL mice [2]; [7]): selectively increase stomach mass, relative to colon mass"
H-HGEGSFSDELATILEALAAADFIAWLIATKITDKKKKKK-NH2 [ZP2402],–,–,–,102%,0.90,113%,110%,0.97,"unselective for the small intestine, colon or stomach",–
H-HGEGSFSDELATILEALAAADFIAWLISTKITD-NH2 [ZP2397],1.08,101%,122%,109%,1.08,101%,122%,1.21,–,"Preferential stimulation of epithelial growth in the small intestine (summary) (male C57BL mice [3]; [7]): preferentially stimulating epithelial growth in the small intestine; Selectivity for small intestinal mass relative to colon mass (FIG. 6) (male C57BL mice [3]; [7]): selectively increase small intestinal mass, relative to colon mass"
H-HGEGSFSDELATILEALAAADFISWLIATKITDKKKKKK-NH2 [ZP2411],0.95,111%,117%,106%,0.95,111%,117%,1.05,–,"Preferential stimulation of epithelial growth in the small intestine (summary) (male C57BL mice [3]; [7]): preferentially stimulating epithelial growth in the small intestine; Selectivity for small intestinal mass relative to colon mass (FIG. 6) (male C57BL mice [3]; [7]): selectively increase small intestinal mass, relative to colon mass"
H-HGEGSFSDELLTILELLAALDFILWLILTKITDKKKKKK-NH2 [ZP2424],–,–,–,91%,0.93,98%,86%,0.88,"unselective for the small intestine, colon or stomach",–
H-HGEGSFSDELKTILESLAAADFIEWLIQTKITDKKKKKK-NH2 [ZP2379],–,–,–,99%,1.02,97%,88%,0.91,"unselective for the small intestine, colon or stomach",–
H-HGEGSFSDELATILESLAASDFISWLISTKITDKKKKKK-NH2 [ZP2386],–,–,–,95%,0.86,111%,113%,1.02,"unselective for the small intestine, colon or stomach",–
H-HGEGSFSDELATILEALAASDFISWLISTKITDKKKKKK-NH2 [ZP2381],0.88,104%,123%,92%,0.88,104%,123%,1.18,–,"Preferential stimulation of epithelial growth in the small intestine (summary) (male C57BL mice [3]; [7]): preferentially stimulating epithelial growth in the small intestine; Selectivity for small intestinal mass relative to colon mass (FIG. 6) (male C57BL mice [3]; [7]): selectively increase small intestinal mass, relative to colon mass"
